# Laboratory results published in patent publication US20260216138A1, “IDENTIFICATION OF OTUD7B INHIBITOR 7BI AND ITS APPLICATION IN REDUCING GROWTH OF NSCLC AND LEUKEMIA CELLS” (The University of North Carolina at Chapel Hill, priority 2023, published 2026).
# What was measured:
# Akt-pS473 = Akt-pS473 immunoblot in leukemia cells (HL60, K562, THP1); format: cell-based; details: indicated doses, 16 hrs
# Method: (§1) Cells were harvested and lysed in EBC buffer (50 mM Tris pH 7.5, 120 mM NaCl, 0.5% NP-40) supplemented with protease inhibitor cocktail (EDTA-free, mini-tablet) (Bimake) and phosphatase inhibitor cocktail (Bimake) by rotating in the cold room for 10 min followed by high-speed centrifugation at 4° C. The protein concentrations in supernatants of whole cell lysates were measured by NanoDrop OneC using the Bio-Rad Bradford protein assay reagent. Equal amounts of whole cell lysates were resolved on SDS-PAGE and immunoblotted with indicated antibodies. For immunoprecipitation analysis, 1 mg of total cell lysate was incubated with the indicated beads for 3-4 hr at 4° C. The recovered immuno-complexes were washed thoroughly three times with NETN buffer (20 mM Tris, pH 8.0, 100 mM NaCl, 1 mM EDTA and 0.5% NP-40) before being resuspended in SDS sample buffer and resolved on SDS-PAGE and immunoblotted with indicated antibodies.
# In addition to NSCLC, overexpression of OTUD7B was also observed in diffuse large B-cell lymphoma and served as a prognostic marker. This promoted us to examine roles of OTUD7B in leukemia cells. […] Similar to NSCLC cells, depletion of OTUD7B in K562 cells also led to increased K63-linked GβL ubiquitination (FIG. 4D). Consistent with a reduction in Akt-pS473 signals, OTUD7B depletion reduced the growth of THP1 (FIG. 4E), K562 (FIG. 4F) and HL60 (FIG. 4G) cells in vitro.
# [1] = tested on: K63-linked ubiquitination of GβL; experiment: Endogenous K63-linked GβL ubiquitination (GβL-IP); format: cell-based; details: 16 hrs
# Method: as §1
# OTUD7A = molecular target: T1, OTUD7A (Homo sapiens, UniProt Q8TE49); experiment: Ubiquitin-AMC assay, OTUD7A; format: biochemical; details: 50 μM 7Bi, 10 μM OTUD7A, 2 uM ubiquitin-AMC
# T1 construct: OTUD7A (residues 1-462); GST (N, cleaved yes); made in house; host or cells: E. coli BL21-Codon Plus (DE3)-RIL
# T1 sequence (Q8TE49 1-462): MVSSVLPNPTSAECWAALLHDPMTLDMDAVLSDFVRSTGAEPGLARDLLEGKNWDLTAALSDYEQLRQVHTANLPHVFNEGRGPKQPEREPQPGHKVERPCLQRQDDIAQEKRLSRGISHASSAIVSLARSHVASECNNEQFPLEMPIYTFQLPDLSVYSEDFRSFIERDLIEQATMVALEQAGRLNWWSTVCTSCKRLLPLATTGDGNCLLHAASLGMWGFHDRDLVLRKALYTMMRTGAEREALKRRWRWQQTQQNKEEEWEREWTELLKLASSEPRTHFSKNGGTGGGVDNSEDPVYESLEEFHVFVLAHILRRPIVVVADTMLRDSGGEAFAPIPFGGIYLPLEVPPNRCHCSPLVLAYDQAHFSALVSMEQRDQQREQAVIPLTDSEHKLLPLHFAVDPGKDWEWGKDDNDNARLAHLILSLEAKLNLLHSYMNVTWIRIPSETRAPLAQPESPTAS
# Method: 50 μM 7Bi were incubated with 300 nM OTUD7B (residues 56-446), 10 μM OTUD7A (residues 1-462), 200 nM USP21 (residues 196-565), or 500 nM USP9X (residues 1551-1970) in reaction buffer (20 mM HEPES pH=8.0, 200 mM NaCl, 0.25 mg/mL BSA and 0.005% Tween-20) for 5 min at room temperature. Then, 2 uM ubiquitin-AMC was added to start the reaction. The fluorescence emission data was collected at an excitation wavelength of 355 nm and emission wavelength of 460 nm every 3 min. Reactions were completed three times to generate the error bars.
# H520 cells = experiment: Colony formation / growth of H520 cells; format: cell-based; details: treated once for 10 days
# Method: 500 cells from OTUD7B depleted A549 cells were seeded into each well of 6-well plates and cultured in the 37° C. incubator with 5% CO2 for 10-15 days until formation of visible colonies. Triplicates were performed. To test the effect of a given inhibitor on colony formation ability, 800 cells from A549, H520 and H1299 cell lines were seeded into each well of 6-well plates, respectively. Each inhibitor was added at indicated concentration the next day. Colonies were counted after 10 days of treatment. The colony staining method was as described. […] Colony numbers were counted manually. […]
# 2,000 cells from indicated NSLC cell lines were seeded into each well of 96-well plates. Cell viability was measured 3 days post-treatment using MTT assays following manufacturer's instruction. […] Inhibitor was added the next day at indicated concentration and cell viability was measured after 3-day treatment. For cell proliferation assays in THP1, K562 and HL60 cell lines, 1×10^6 cells from each indicated cell line were seeded in 12.5 cm2 cell culture flask and cells were counted by hemocytometer under microscope at indicated time to monitor cell proliferation. […] Inhibitor was added the next day at indicated concentrations and cell number was counted after 3 days treatment. […]
smiles,measurement,setting,value
Cc1cc(NC(=O)c2cnn(C)c2C(=O)Nc2cc(C)nn2C2CCCC2)n(C2CCCC2)n1 [7Bi],Akt-pS473 signals,Akt-pS473; HL60 cells,reduced Akt-pS473 signals
same,Akt-pS473 signals,Akt-pS473; K562 cells,reduced Akt-pS473 signals
same,Akt-pS473 signals,Akt-pS473; THP1 cells,reduced Akt-pS473 signals
same,K63-linked ubiquitination of GβL at endogenous levels,[1]; A549 cells,increased K63-linked ubiquitination of GβL at endogenous levels
same,K63-linked GβL ubiquitination at endogenous levels,[1]; K562 cells,increased K63-linked GβL ubiquitination at endogenous levels
same,inhibition of hydrolysis of ubiquitin-AMC by OTUD7A,OTUD7A,but not its close family member OTUD7A
same,cell growth,H520 cells,reduced growth
